From article PMC11290853, “Cholesterol-dependent dynamic changes in the conformation of the type 1 cholecystokinin receptor affect ligand binding and G protein coupling” (PLOS Biology, 2024)
Where a chain is given by its changes, count along the chain named.

What was measured:
[1] = test system: CCK1R(Y140A); experiment: photoaffinity labeling, CCK1R(Y140A); format: binding, human; settings: CNBr cleavage, 10% NuPAGE gel
Description: (§1) After incubation, contents were transferred to a siliconized glass tube and exposed to UV irradiation for 30 min at 4°C with 3,500-Å lamps in a Rayonet photochemical reactor (Southern New England Ultraviolet, Hamden, Connecticut). After photolysis, membrane suspensions were centrifuged at 25,000×g for 5 min and washed twice with ice-cold medium and then resuspended in 30 μl of SDS sample buffer prior to separation on 10% SDS-polyacrylamide gels. Gels were dried and radiolabeled bands were visualized by autoradiography. The apparent molecular weight of radiolabeled receptor fragments was determined from the mobility of Prosieve color protein standards (Cambrex, Rockland, Maine). Receptor radiolabeled bands were excised from the polyacrylamide gel, eluted, and lyophilized, then precipitated with ethanol. Radiochemically pure receptor suspension was cleaved with 2.5 mg of CNBr in 70% formic acid, as described previously. The cleaved receptor products were washed, dried, and resolve in 10% NuPAGE gel with MES running buffer (Invitrogen, Carlsbad, California). The labeled products were identified by autoradiography.

[2] = test system: CCK1R(sterol 7M); experiment: photoaffinity labeling, CCK1R(sterol 7M); format: binding, human; settings: CNBr cleavage, 10% NuPAGE gel
Description: as §1

[3] = test system: WT CCK1R; settings: large glycosylated CNBr fragment; ref [28],[31]; cited from earlier work
[4] = test system: CCK2R; settings: CNBr fragment; ref [28]; cited from earlier work
[5] = molecular target: T1, CCK1R(Y140A) (Homo sapiens, UniProt P32238, Y140A); experiment: fluorescence polarization kinetic assay, CCK1R(Y140A); format: binding
T1 construct: expressed in transfected cells; some KO cells re-transfected with Galphaq or Galpha11), receptor-enriched membranes
T1 sequence (P32238 1-428 Y140A): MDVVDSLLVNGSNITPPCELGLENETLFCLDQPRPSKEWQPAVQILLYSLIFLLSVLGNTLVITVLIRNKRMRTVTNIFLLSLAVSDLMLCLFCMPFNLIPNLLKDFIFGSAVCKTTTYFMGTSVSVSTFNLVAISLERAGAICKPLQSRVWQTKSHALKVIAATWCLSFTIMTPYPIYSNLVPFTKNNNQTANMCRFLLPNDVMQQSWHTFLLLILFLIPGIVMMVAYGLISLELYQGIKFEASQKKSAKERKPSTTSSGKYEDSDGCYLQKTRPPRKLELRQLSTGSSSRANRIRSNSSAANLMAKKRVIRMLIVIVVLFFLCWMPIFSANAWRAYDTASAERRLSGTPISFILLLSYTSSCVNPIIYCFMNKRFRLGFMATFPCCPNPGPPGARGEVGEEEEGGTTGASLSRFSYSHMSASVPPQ
Description: (§2) Cells were grown either in Ham-F12 medium supplemented with 5% Fetal Clone II or DMEM supplemented with 10% Fetal Clone II with 1% penicillin-streptomycin, 4 mM glutamine mixture in a humidified atmosphere containing 5% CO2 at 37°C.
(§3) This was done in the absence or presence of the non-hydrolyzable GTP analogue, GppNHp, at 10 μM concentration.

[6] = molecular target: T2, CCK1R(sterol 7M) (Homo sapiens, UniProt P32238, F130L/G141S/I216L/I223V/L219F/M226A/S136A); experiment: fluorescence polarization kinetic assay, CCK1R(sterol 7M); format: binding
T2 construct: expressed in transfected cells
T2 sequence (P32238 1-428 F130L/S136A/G141S/I216L/L219F/I223V/M226A): T1 sequence (P32238 1-428 Y140A) with F130L, S136A, A140Y, G141S, I216L, L219F, I223V, M226A
Description: as §2, §3

[7] = molecular target: T3, CCK2R WT (Homo sapiens, UniProt P32239); experiment: fluorescence polarization kinetic assay, CCK2R WT; format: binding
T3 construct: expressed in transfected cells; some KO cells re-transfected with Galphaq or Galpha11), receptor-enriched membranes
T3 sequence (P32239 1-447): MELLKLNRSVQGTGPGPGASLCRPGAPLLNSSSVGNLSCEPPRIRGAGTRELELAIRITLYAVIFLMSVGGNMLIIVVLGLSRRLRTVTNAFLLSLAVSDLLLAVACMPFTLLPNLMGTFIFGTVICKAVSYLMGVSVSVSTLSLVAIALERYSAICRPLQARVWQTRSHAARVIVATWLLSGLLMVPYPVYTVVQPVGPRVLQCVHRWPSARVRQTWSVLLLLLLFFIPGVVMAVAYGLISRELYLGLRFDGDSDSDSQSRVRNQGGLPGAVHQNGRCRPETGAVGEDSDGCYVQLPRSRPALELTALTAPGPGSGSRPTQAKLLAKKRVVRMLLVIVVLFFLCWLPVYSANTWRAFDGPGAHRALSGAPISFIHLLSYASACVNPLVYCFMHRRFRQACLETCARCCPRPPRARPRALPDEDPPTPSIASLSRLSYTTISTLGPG
Description: as §2, §3

[8] = molecular target: T4, CCK2R(sterol 7M) (Homo sapiens, UniProt P32239, A149S/A235M/F228L/L143F/L225I/S154G/V232I); experiment: fluorescence polarization kinetic assay, CCK2R(sterol 7M); format: binding; settings: vs CCK2R
T4 construct: expressed in transfected cells
T4 sequence (P32239 1-447 L143F/A149S/S154G/L225I/F228L/V232I/A235M): T3 sequence (P32239 1-447) with L143F, A149S, S154G, L225I, F228L, V232I, A235M
Description: as §2, §3

[9] = molecular target: T5, SRD15-CCK1R cells (Homo sapiens, UniProt P32238); experiment: fluorescence polarization kinetic assay, SRD15-CCK1R cells; format: binding; settings: vs WT CCK1R
T5 construct: expressed in transfected cells; host or cells: SRD15 cells (genetically modified CHO cells with elevated membrane cholesterol)
T5 sequence (P32238 1-428): T1 sequence (P32238 1-428 Y140A) with A140Y
Description: as §2, §3

Compound | photoaffinity labeling pattern [1] | photoaffinity labeling pattern [2] | site of covalent labeling [3] | site of covalent labeling [4] | off rate, Gq or G11 transfected ([5]; Gq/11 KO cells) | rate of CCK dissociation (off rate) ([5]; vs WT CCK1R) | kinetics in Gq/11 KO cells ([6]; absence of Gq/11 proteins) | off rate ([6]; vs CCK1R and CCK1R(Y140A)) | ligand dissociation rate, Gq or G11 reintroduced ([7]; Gq/11 KO cells) | rate of CCK dissociation (off rate) ([7]; vs WT CCK1R) | ligand dissociation [8] | rate of CCK dissociation (off rate) [9]
(^125I-des-amino-Tyr)-Gly-[(Nle^28,31)CCK(26–32)]-Bpa^33 | labeling of a much smaller and non-glycosylated fragment of the receptor | the same as previously demonstrated for WT CCK1R | Trp39 | Thr119 | – | – | – | – | – | – | – | –
CCCC[C@H](NC(=O)[C@H](Cc1ccc(OS(=O)(=O)O)cc1)NC(=O)[C@H](CC(=O)O)NC(=O)CNC(=O)c1ccc(-c2c3ccc(=N)c(S(=O)(=O)O)c-3oc3c(S(=O)(=O)O)c(N)ccc23)c(C(=O)O)c1)C(=O)NCC(=O)N[C@@H](Cc1c[nH]c2ccccc12)C(=O)N[C@@H](CCCC)C(=O)N[C@@H](CC(=O)O)C(=O)N[C@@H](Cc1ccccc1)C(N)=O [alexa^488-Gly-[(Nle^28,31)CCK-26-33]] | – | – | – | – | transfection of Gq, but not G11, reversed the higher off rate | significantly slower | not altered by absence of Gq/11 proteins | intermediate between that of CCK1R and CCK1R(Y140A) | reintroduction of either Gq or G11 reversed the increased ligand dissociation rate | slower at WT CCK2R relative to WT CCK1R | significantly faster ligand dissociation than CCK2R | significantly slower
